In US10913871B2, “Ink composition, method for producing the same, and image-forming method” (FUJIFILM CORPORATION, priority 2017, dated 2021):

Experiment: Solubility in water of specified hydrophobic compound or comparative compound
Type: physicochemical
Settings: water at 25° C.
Protocol: Specifically, a Erlenmeyer flask is charged with 20 g of the test substance and 80 g of water, and shaken at 25° C. for 24 hours. The resultant solution is filtered through a 5 μm membrane filter, to obtain filtrate. The obtained filtrate (5 g) is evaporated to dryness at 100° C. for 3 hours. From the mass of the residual, the content (mass %) of the test substance dissolved in the filtrate relative to the total amount of the filtrate is calculated. The calculated content (mass %) is defined as the solubility in water of the test substance.
Specifically, an Erlenmeyer flask is charged with 100 g of water; while the internal temperature is maintained at 25° C., the test substance is gradually dropped. The dropping is ended when visual observation finds cloudiness in the liquid within the Erlenmeyer flask. The mass (mass %) of the test substance dropped until the end of the dropping relative to the total mass of the liquid within the Erlenmeyer flask is defined as the solubility in water of the test substance.

SMILES	Solubility in water [mass %]
CCCCCCCCCCCCCCCCCCCCO [Example 1-Eicosanol, 1-Eicosanol]	<1
CCCCCCCCCCCCCCCCCCCCCCO [Example 1-Docosanol, 1-Docosanol]	<1
CCCCCCCCO [Example 1-Octanol, 1-Octanol]	<1
CCCCCCCCCCCCCCCCCCO [Stearyl alcohol]	<1
CCCCCCCCCCCCCCCCCC(=O)OC [EXCEPARL MS]	<1
CCCCCCCCCCC(CO)CCCCCCCC (stereo not drawn) [2-Octyldodecanol]	<1
